The values that follow come from ChEMBL document CHEMBL3739262, “Flavones Inhibit the Activity of AKR1B10, a Promising Therapeutic Target for Cancer Treatment” (J Nat Prod, 2015).

Calls of active or inactive are those of the source. The rule behind the calls is not given here.

The target of test [1] is T1, Aldo-keto reductase family 1 member B10 (Homo sapiens, UniProt O60218). Put plainly: Inhibition of recombinant human N-terminal His6-tagged AKR1B10 expressed in Escherichia coli BL21 cells using all-trans-retinal as substrate at 20 uM incubated for 15 mins by HPLC method.
Target sequence in this assay (O60218 whole entry, looked up): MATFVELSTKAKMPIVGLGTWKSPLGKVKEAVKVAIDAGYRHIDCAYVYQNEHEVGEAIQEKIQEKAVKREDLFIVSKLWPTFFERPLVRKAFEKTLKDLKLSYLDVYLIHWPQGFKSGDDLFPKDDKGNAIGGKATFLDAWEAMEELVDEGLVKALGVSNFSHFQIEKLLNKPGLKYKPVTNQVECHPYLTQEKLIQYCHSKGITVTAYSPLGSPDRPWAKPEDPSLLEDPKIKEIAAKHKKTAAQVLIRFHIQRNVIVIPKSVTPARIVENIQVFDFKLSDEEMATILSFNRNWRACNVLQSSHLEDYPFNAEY
In test [2] the target is T1, Aldo-keto reductase family 1 member B10. As to the kind of experiment: Inhibition of recombinant human AKR1B10 expressed in human HCT116 cells assessed as reduction in daunorubicinol production using daunorubicin as substrate at 20 uM incubated for 4 to 8 hrs by UHPLC based transient transfection assay. Conditions: HCT-116. It is filed as cell-based.
Target sequence in this assay (O60218 whole entry, looked up): as above
Test [3] has the same target. As to the kind of experiment: Inhibition of recombinant human AKR1B10 expressed in human HCT116 cells assessed as reduction in daunorubicinol production using daunorubicin as substrate at 10 uM incubated for 4 to 8 hrs by UHPLC based transient transfection assay. It is filed as cell-based. Conditions: HCT-116.
Target sequence in this assay (O60218 whole entry, looked up): as above
Test [4] has the same target. Put plainly: Inhibition of recombinant human N-terminal His6-tagged AKR1B10 expressed in Escherichia coli BL21 cells using daunorubicin as substrate incubated for 20 mins by UHPLC method.
Target sequence in this assay (O60218 whole entry): as the sequence (O60218 whole entry, looked up) above
Test [5] has the same target. As to the kind of experiment: Inhibition of recombinant human N-terminal His6-tagged AKR1B10 expressed in Escherichia coli BL21 cells using all-trans-retinal as substrate incubated for 15 mins by HPLC method.
Target sequence in this assay (O60218 whole entry): as the sequence (O60218 whole entry, looked up) above
Test [6] is described as follows: Cytotoxicity against human HCT116 cells assessed as cell viability after 72 hrs by MTT assay. The class given is cell-based. Conditions: HCT-116, 72 h.
Test [7] concerns the target Aldo-keto reductase family 1 member B1 (Homo sapiens, UniProt P15121). Put plainly: Inhibition of recombinant N-terminal His6-tagged AKR1B1 (unknown origin) expressed in Escherichia coli BL21 cells using all-trans-retinal as substrate incubated for 15 mins by HPLC method.
The target of test [8] is T1, Aldo-keto reductase family 1 member B10. As to the kind of experiment: Potency index, ratio of IC50 for flufenamic acid to IC50 for text compound for inhibition of recombinant human N-terminal His6-tagged AKR1B10 expressed in Escherichia coli BL21 cells using all-trans-retinal as substrate incubated for 15 mins by HPLC method.
Target sequence in this assay (O60218 whole entry, looked up): as above
Test [9] has the same target. As to the kind of experiment: Non-competitive inhibition of recombinant human N-terminal His6-tagged AKR1B10 expressed in Escherichia coli BL21 cells using all-trans-retinal as substrate incubated for 15 mins by Lineweaver-Burk plot analysis.
Target sequence in this assay (O60218 whole entry): as the sequence (O60218 whole entry, looked up) above
Test [10] shares this target. As to the kind of experiment: Inhibition of recombinant human AKR1B10 expressed in human HCT116 cells assessed as reduction in daunorubicinol production using daunorubicin as substrate incubated for 4 to 8 hrs by UHPLC based transient transfection assay. It is filed as cell-based. Conditions: HCT-116.
Target sequence in this assay (O60218 whole entry, looked up): as above

With `COc1cc([C@H]2Oc3cc([C@H]4Oc5cc(O)c(O)cc5C(=O)[C@@H]4O)ccc3O[C@@H]2CO)ccc1O`, the inhibition entry in [1] was “Active”.
Still for that read-out and setting: with `COc1ccc([C@@H]2CC(=O)c3c(O)cc(O)cc3O2)cc1O` the entry was “Active”; with `C[C@@H]1O[C@@H](OC[C@H]2O[C@@H](Oc3c(-c4ccc(O)c(O)c4)oc4cc(O)cc(O)c4c3=O)[C@H](O)[C@@H](O)[C@@H]2O)[C@H](O)[C@H](O)[C@H]1O`, “Active”; with `C[C@@H]1O[C@@H](Oc2c(-c3ccc(O)c(O)c3)oc3cc(O)cc(O)c3c2=O)[C@H](O)[C@H](O)[C@H]1O`, “Active”.
For the compound `O=C(/C=C/c1ccc(O)c(O)c1)O[C@@H]1C[C@](O)(C(=O)O)C[C@@H](O)[C@H]1O`, the inhibition result in test [1] was “Active”.
As to `O=C(CCc1ccc(O)cc1)c1c(O)cc(O)cc1O[C@@H]1O[C@H](CO)[C@@H](O)[C@H](O)[C@H]1O`, in test [1], the inhibition entry was “Active”.
`O=C(O)/C=C/c1ccc(O)c(O)c1`: in test [1], the inhibition result is “Active”.
Take `O=C(O)c1ccc(O)cc1`: in [1], the inhibition result is “Active”.
Still for that read-out and setting: with `O=C(O[C@@H]1Cc2c(O)cc(O)cc2O[C@@H]1c1cc(O)c(O)c(O)c1)c1cc(O)c(O)c(O)c1` the entry was “Active”; with `O=C1CC(c2ccc(O)cc2)Oc2ccccc21` (stereo unspecified), “Active”; with `O=C1CC(c2ccccc2O)Oc2ccccc21` (stereo unspecified), “Active”.
Still for that read-out and setting: the result for `O=C1C[C@@H](c2ccc(O)cc2)Oc2cc(O)cc(O)c21` reads “Active”.
On to `O=C1c2c(O)cc(O)cc2O[C@H](c2ccc(O)c(O)c2)[C@H]1O`, for which the inhibition entry in [1] is “Active”.
In the case of `O=c1c(O)c(-c2ccc(O)c(O)c2)oc2cc(O)cc(O)c12`, the figures for the inhibition in [2] and in test [3] were 23% and 18%, respectively. The inhibition result in [1] is “Active”.
For `O=c1c(O)c(-c2ccc(O)cc2O)oc2cc(O)cc(O)c12`, in test [1], the inhibition entry is “Active”.
As for `O=c1c(O)c(-c2ccccc2)oc2ccccc12`, in test [1], the inhibition entry was “Active”.
Same read-out and setting: the result for `O=c1cc(-c2ccc(O)cc2)oc2c([C@@H]3O[C@H](CO)[C@@H](O)[C@H](O)[C@H]3O)c(O)cc(O)c12` reads “Active”; that for `O=c1cc(-c2ccccc2)oc2cccc(O)c12`, “Active”; that for `Oc1cc(O)c2c(c1)O[C@H](c1ccc(O)c(O)c1)[C@@H](O)C2`, “Active”.
As to `O=c1cc(-c2ccccc2)oc2cc(O)ccc12` [7-HYDROXYFLAVONE], the IC50 in [4] was found to be 160 µM; in test [5], 8.3 µM; in test [7], 12.3 µM. Also, the inhibition in [2] is 19%. Moreover, the EC50 in test [6] was above 50 µM. The inhibition result in [1] was “Active”. The Ratio IC50 in test [8] is 10.
Consider `O=c1cc(-c2ccc(O)cc2)oc2cc(O)cc(O)c12` [APIGENIN], for which the inhibition constant (Ki) in [9] stood at 6 µM. The figures for the IC50 in test [4], in test [5] and in [7] were 37.1 µM, 6.6 µM and 11.9 µM, respectively. Moreover, the results for the inhibition in test [2] and in test [3] were 34% and 25%, respectively. Also, the EC50 in test [6] turned out to be 23.8 µM. In addition, in test [1], the inhibition result was “Active”. In addition, in [8], the Ratio IC50 turned out to be 10.
As to `COc1ccc(-c2coc3cc(O)cc(O)c3c2=O)cc1` [BIOCHANIN], the IC50 in [5] amounted to 36.1 µM; in test [7], 127 µM. Also, the inhibition result in test [1] was “Active”.
Consider `O=c1c(-c2ccc(O)cc2)coc2cc(O)ccc12` [DAIDZEIN], for which the half-inhibitory concentration (IC50) in test [5] came out at 32.2 µM; in test [7], 162 µM. In addition, the inhibition entry in [1] was “Active”.
Regarding `O=C(O)c1ccccc1Nc1cccc(C(F)(F)F)c1` [FLUFENAMIC ACID], the IC50 in test [5] is 96 µM. The inhibition result in test [10] is “inactive”. Moreover, the inhibition result in test [1] was “Active”.
In the case of `O=c1cc(-c2ccc(O)c(O)c2)oc2cc(O)cc(O)c12` [LUTEOLIN], the figures for the IC50 in [4] and in test [5] were 108 µM and 9.2 µM, respectively. In addition, the inhibition in test [2] was found to be 33%. Further, in test [6], the concentration giving a half-maximal response (EC50) was 26.7 µM. Besides, in test [1], the inhibition result was “Active”.

One may read the inhibition as the relative decrease from the control value, in per cent. Usually IC50 stands for the midpoint of a concentration-inhibition curve. A word on the EC50: it is the concentration needed to bring the measured effect to its halfway point. Usually Ki stands for the equilibrium dissociation constant of an inhibitor or competing ligand from its target.
